Data taken from US7989633B2, “4-Chromenonyl-1,4-dihydropyridines and their use” (Bayer Schering Pharma Aktiengesellschaft, priority 2005, dated 2011).

These molecules were tested against T1, human mineralocorticoid receptor (MR) (Homo sapiens, UniProt P08235) (assay: Cellular in vitro assay to determine the inhibitory MR activity (GAL4-MR chimera luciferase reporter in CHO K1 cells)). Settings: GAL4-MR ligand-binding domain chimera in CHO K1 cells, agonist aldosterone.
T1 construct: expressed in transfected cells
T1 sequence (P08235 734-984 limits assumed): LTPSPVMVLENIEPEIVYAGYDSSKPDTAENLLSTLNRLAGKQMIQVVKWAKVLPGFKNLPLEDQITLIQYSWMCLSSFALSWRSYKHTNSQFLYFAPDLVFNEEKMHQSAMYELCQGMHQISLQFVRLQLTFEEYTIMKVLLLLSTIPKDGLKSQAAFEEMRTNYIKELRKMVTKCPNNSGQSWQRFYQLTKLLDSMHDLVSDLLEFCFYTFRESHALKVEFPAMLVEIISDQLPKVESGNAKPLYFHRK
Type: cell-based
From the text: 1. Cellular In Vitro Assay to Determine the Inhibitory MR Activity and MR Selectivity Compared with Other Steroid Hormone Receptors
Antagonists of the human mineralocorticoid receptor (MR) are identified, and the activity of the compounds described herein is quantified with the aid of a recombinant cell line. The cell is originally derived from a hamster ovary epithelial cell (Chinese Hamster Ovary, CHO K1, ATCC: American Type Culture Collection, VA 20108, USA).
An established chimera system in which the ligand-binding domains of human steroid hormone receptors are fused to the DNA-binding domain of the yeast transcription factor GAL4 is used in this CHO K1 cell line. The GAL4-steroid hormone receptor chimeras produced in this way are cotransfected and stably expressed with a reporter construct in the CHO cells.
To generate the GAL4-steroid hormone receptor chimeras, the GAL4 DNA binding domain (amino acids 1-147) from the vector pFC2-dbd (from Stratagene) is cloned with the PCR-amplified ligand-binding domains of the mineralocorticoid receptor (MR, amino acids 734-985), of the glucocorticoid receptor (GR, amino acids 443-777), of the progesterone receptor (PR, amino acids 680-933) and of the androgen receptor (AR, amino acids 667-919) into the vector pIRES2 (from Clontech). The reporter construct, which comprises five copies of the GAL4 binding site upstream of a thymidine kinase promoter, leads to expression of firefly-luciferase (Photinus pyralis) after activation and binding of the GAL4-steroid hormone receptor chimeras by the respective specific agonists aldosterone (MR), dexamethasone (GR), progesterone (PR) and dihydrotestosterone (AR).
The MR, GR, PR and AR cells are plated out in medium (Optimem, 2.5% FCS, 2 mM glutamine, 10 mM HEPES) in 96- (or 384- or 1536-) well microtiter plates on the day before the assay and are kept in a cell incubator (96% humidity, 5% v/v CO2, 37° C.). On the day of the assay, the substances to be tested are taken up in the abovementioned medium and added to the cells. About 10 to 30 minutes after addition of the test substances, the respective specific agonists of the steroid hormone receptors are added. After a further incubation time of 5 to 6 hours, the luciferase activity is measured with the aid of a video camera. The measured relative light units as a function of the substance concentration result in a sigmoidal stimulation curve. The IC50 values are calculated with the aid of the GraphPad PRISM computer program (Version 3.02).
With `CCOC(=O)C1=C(C)NC(C)=C(C(=O)c2ccccc2)C1c1cccc2c(=O)cc(C)oc12` (stereo not shown) [Example 14, Ethyl 5-benzoyl-2,6-dimethyl-4-(2-methyl-4-oxo-4H-chromen-8-yl)-1,4-dihydropyridine-3-carboxylate] the IC50 was 104 nM. With `CC1=C(C(=O)OC(C)C)C(c2cccc3c(=O)cc(C)oc23)C(C(=O)C(F)(F)F)=C(C)N1` (stereo not shown) [Example 8, Isopropyl 2,6-dimethyl-4-(2-methyl-4-oxo-4H-chromen-8-yl)-5-(trifluoroacetyl)-1,4-dihydro-pyridine-3-carboxylate] the IC50 was 19 nM. Work on `COC(=O)C1=C(C)NC(C)=C(C(=O)c2ccc(C)cc2)C1c1cccc2c(=O)cc(C)oc12` (stereo not shown) [Example 37, Methyl 2,6-dimethyl-5-(4-methylbenzoyl)-4-(2-methyl-4-oxo-4H-chromen-8-yl)-1,4-dihydro-pyridine-3-carboxylate] yielded an IC50 of 27 nM. For `CCOC(=O)C1=C(C)NC(C)=C(C(C)=O)C1c1ccc(F)c2c(=O)cc(C)oc12` (stereo not shown) [Example 11, Ethyl 5-acetyl-2,6-dimethyl-4-(5-fluoro-2-methyl-4-oxo-4H-chromen-8-yl)-1,4-dihydropyridine-3-carboxylate], the IC50 was 74 nM. Molecule `CCOC(=O)C1=C(C)NC(C)=C(C(C)=O)C1c1cccc2c(=O)cc(C)oc12` (single isomer, unassigned) [Example 1 (Enantiomer 2), Ethyl 5-acetyl-2,6-dimethyl-4-(2-methyl-4-oxo-4H-chromen-8-yl)-1,4-dihydropyridine-3-carboxylate] has an IC50 of 43 nM. In the case of `CC(=O)C1=C(C)NC(C)=C(C(=O)OC(C)C)C1c1cccc2c(=O)cc(C)oc12` (stereo not shown) [Example 3, Isopropyl 5-acetyl-2,6-dimethyl-4-(2-methyl-4-oxo-4H-chromen-8-yl)-1,4-dihydropyridine-3-carboxylate], the IC50 is reported as 39 nM. With `CC(=O)C1=C(C)NC(C)=C(C(=O)OC2CCCC2)C1c1cccc2c(=O)cc(C)oc12` (stereo not shown) [Example 2, Cyclopentyl 5-acetyl-2,6-dimethyl-4-(2-methyl-4-oxo-4H-chromen-8-yl)-1,4-dihydropyridine-3-carboxylate] the IC50 was 22 nM. `COC(=O)C1=C(C)NC(C)=C(C(=O)CC2CCC2)C1c1cccc2c(=O)cc(C)oc12` (stereo not shown) [Example 34, Methyl 5-(cyclobutylacetyl)-2,6-dimethyl-4-(2-methyl-4-oxo-4H-chromen-8-yl)-1,4-dihydro-pyridine-3-carboxylate] gave an IC50 of 18 nM. `COC(=O)C1=C(C)NC(C)=C(C(C)=O)C1c1cccc2c(=O)cc(C)oc12` (stereo not shown) [Example 4, Methyl 5-acetyl-2,6-dimethyl-4-(2-methyl-4-oxo-4H-chromen-8-yl)-1,4-dihydropyridine-3-carboxylate] showed an IC50 of 235 nM. Molecule `CCOC(=O)C1=C(C)NC(C)=C(C(C)=O)C1c1cccc2c(=O)cc(C)oc12` (racemic) [Example 1 (Racemate), Ethyl 5-acetyl-2,6-dimethyl-4-(2-methyl-4-oxo-4H-chromen-8-yl)-1,4-dihydropyridine-3-carboxylate] has an IC50 of 75 nM.
